Data reported in ChEMBL document CHEMBL1201862, “PubChem BioAssay data set” (2004).
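Results reflect a 48-hour exposure of cells in 96-well plates to compound at five concentrations. GI50 is the concentration that inhibits growth by half.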 Activity calls are given as the source filed them. Cut-off read from the data, not from the text of the source: active = GI50 up to about 1.1 µM and inactive = higher.

Legend:
Assay in all cases: inhibition of tumour cell growth, NCI panel, 48 h
[1] = test system: BT-549
[2] = test system: HOP-62
[3] = test system: HT-29
[4] = test system: Hs-578T
[5] = test system: KM12
[6] = test system: MDA-MB-435
[7] = test system: MDA-N
[8] = test system: MOLT-4
[9] = test system: NCI-H23
[10] = test system: NCI-H522
[11] = test system: NCI/ADR-RES
[12] = test system: OVCAR-3
[13] = test system: OVCAR-4
[14] = test system: PC-3
[15] = test system: RXF 393
[16] = test system: SF-268
[17] = test system: SF-539
[18] = test system: SK-MEL-28
[19] = test system: SNB-19
[20] = test system: SR

Measured: GI50

CN(C)CCCCN1c2ccccc2Sc2cc(N=[N+]=[N-])ccc21
inactive: [1] 11000 nM | [2] 2280 nM | [3] 1550 nM | [4] 3030 nM | [5] 1730 nM | [6] 1670 nM | [7] 1720 nM | [8] 1930 nM | [9] 9660 nM | [10] 1600 nM | [11] 1750 nM | [12] 1890 nM | [13] 2400 nM | [14] 1860 nM | [15] 3300 nM | [16] 2380 nM | [17] 1960 nM | [18] 1820 nM | [19] 5750 nM | [20] 2540 nM
